Reference: patent US11739074B2, “Ras inhibitors” (Revolution Medicines, Inc., priority 2019, dated 2023)
Like-named read-outs stand apart in the source and are kept apart here.

Columns and labels:
NRAS Q61K = target: T1, NRAS Q61K (Homo sapiens, UniProt P01111+P62937, Q61K); experiment: Ras-Raf disruption/FRET/MOA assay, NRAS Q61K; format: biochemical
T1 construct: His6
Source text: (§1) Disruption of B-Raf Ras-Binding Domain (BRAF^RBD) Interaction with K-Ras by Compounds of the Invention (Also Called a FRET Assay or an MOA Assay)
(§2) Note—The following protocol describes a procedure for monitoring disruption of K-Ras G12C (GMP-PNP) binding to BRAF^RBD by a compound of the invention. This protocol may also be executed substituting other Ras proteins or nucleotides, such as K-Ras G12D and K-Ras G13D.
(§3) The purpose of this biochemical assay was to measure the ability of test compounds to facilitate ternary complex formation between a nucleotide-loaded K-Ras isoform and Cyclophilin A; the resulting ternary complex disrupts binding to a BRAF^RBD construct, inhibiting K-Ras signaling through a RAF effector.
(§4) In assay buffer containing 25 mM HEPES pH 7.3, 0.002% Tween20, 0.1% BSA, 100 mM NaCl and 5 mM MgCl2, tagless Cyclophilin A, His6-K-Ras-GMPPNP, and GST-BRAF^RBD were combined in a 384-well assay plate at final concentrations of 25 μM, 12.5 nM, and 50 nM, respectively. Compound was present in plate wells as a 10-point 3-fold dilution series starting at a final concentration of 30 μM. After incubation at 25° C. for 3 hours, a mixture of anti-His Eu-W1024 and anti-GST allophycocyanin was then added to assay sample wells at final concentrations of 10 nM and 50 nM, respectively, and the reaction incubated for an additional 1.5 hours. […] Compounds that facilitate disruption of a K-Ras:RAF complex were identified as those eliciting a decrease in the TR-FRET ratio relative to DMSO control wells.

AsPC-1 (K-Ras G12D) [1] = experiment: Potency assay: pERK in AsPC-1 cells; format: cell-based; conditions: Homo sapiens
NCI-H358 (K-Ras G12C) = experiment: CellTiter-Glo cell viability assay, H358; format: cell-based; conditions: Homo sapiens, NCI-H358, 120 h
Procedure, shortened: (§5)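 Percent-of-DMSO luminescence values (CellTiter-Glo, day 5, plates equilibrated ~30 minutes at ambient temperature) were curve-fitted using a 4-parameter logistic equation; compounds had been added straight into wells containing the cells.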

KRAS G13C = KRAS G13C (Homo sapiens, UniProt P01116+P62937, G13C); experiment: Ras-Raf disruption/FRET/MOA assay, KRAS G13C; format: biochemical
KRAS G13C, sequence (P01116 1-169 isoform P01116-2 G13C limits assumed): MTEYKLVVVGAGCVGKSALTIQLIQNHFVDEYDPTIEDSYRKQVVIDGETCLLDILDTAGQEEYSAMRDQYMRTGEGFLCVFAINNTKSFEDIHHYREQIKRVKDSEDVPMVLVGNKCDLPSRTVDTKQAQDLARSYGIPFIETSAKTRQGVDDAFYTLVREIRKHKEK
KRAS G13C, sequence (P62937 whole entry): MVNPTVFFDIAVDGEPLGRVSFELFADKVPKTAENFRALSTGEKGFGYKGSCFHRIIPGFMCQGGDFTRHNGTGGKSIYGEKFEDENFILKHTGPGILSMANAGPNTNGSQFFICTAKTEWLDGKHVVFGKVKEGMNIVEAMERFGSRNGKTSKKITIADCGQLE
Procedure, shortened: (§6)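 In this biochemical mechanism-of-action format, 12.5 nM GMPPNP-bound KRAS and 50 nM BRAF^RBD are mixed with 25 μM Cyclophilin A and dilution series of compound. After a 3 h incubation, tag-directed FRET antibodies report remaining KRAS:RAF association.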

KRAS G13D = KRAS G13D (Homo sapiens, UniProt P01116+P62937, G13D); experiment: Ras-Raf disruption/FRET/MOA assay, KRAS G13D; format: biochemical
KRAS G13D, sequence (P01116 1-169 isoform P01116-2 G13D limits assumed): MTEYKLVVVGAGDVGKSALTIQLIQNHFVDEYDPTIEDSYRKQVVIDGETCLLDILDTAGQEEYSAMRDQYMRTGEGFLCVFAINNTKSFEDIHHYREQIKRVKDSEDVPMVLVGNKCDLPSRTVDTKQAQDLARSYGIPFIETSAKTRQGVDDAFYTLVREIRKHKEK
KRAS G13D, sequence (P62937 whole entry): as the sequence (P62937 whole entry) above
Procedure, shortened: as §6

KRAS G12C = KRAS G12C (Homo sapiens, UniProt P01116+P62937, G12C); experiment: Ras-Raf disruption/FRET/MOA assay, KRAS G12C; format: biochemical
KRAS G12C, sequence (P01116 1-169 isoform P01116-2 G12C limits assumed): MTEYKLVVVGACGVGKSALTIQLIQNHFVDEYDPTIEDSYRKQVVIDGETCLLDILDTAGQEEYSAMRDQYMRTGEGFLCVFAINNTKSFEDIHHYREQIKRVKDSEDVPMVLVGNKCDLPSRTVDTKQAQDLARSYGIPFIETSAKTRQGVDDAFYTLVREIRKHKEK
KRAS G12C, sequence (P62937 whole entry): as the sequence (P62937 whole entry) above
Procedure, shortened: as §6

AsPC-1 (K-Ras G12D) [2] = experiment: CellTiter-Glo cell viability assay, AsPC-1; format: cell-based; conditions: Homo sapiens, ASPC1, 120 h
Procedure, shortened: as §5

KRAS G12V = KRAS G12V (Homo sapiens, UniProt P01116+P62937, G12V); experiment: Ras-Raf disruption/FRET/MOA assay, KRAS G12V; format: biochemical
KRAS G12V, sequence (P01116 1-169 isoform P01116-2 G12V limits assumed): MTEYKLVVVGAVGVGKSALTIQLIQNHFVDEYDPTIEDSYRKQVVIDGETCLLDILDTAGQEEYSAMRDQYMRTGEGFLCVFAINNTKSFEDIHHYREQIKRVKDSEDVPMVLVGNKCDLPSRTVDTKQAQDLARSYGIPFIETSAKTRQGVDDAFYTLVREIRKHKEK
KRAS G12V, sequence (P62937 whole entry): as the sequence (P62937 whole entry) above
Procedure, shortened: as §6

KRAS G12D = KRAS G12D (Homo sapiens, UniProt P01116+P62937, G12D); experiment: Ras-Raf disruption/FRET/MOA assay, KRAS G12D; format: biochemical
KRAS G12D, sequence (P01116 1-169 isoform P01116-2 G12D limits assumed): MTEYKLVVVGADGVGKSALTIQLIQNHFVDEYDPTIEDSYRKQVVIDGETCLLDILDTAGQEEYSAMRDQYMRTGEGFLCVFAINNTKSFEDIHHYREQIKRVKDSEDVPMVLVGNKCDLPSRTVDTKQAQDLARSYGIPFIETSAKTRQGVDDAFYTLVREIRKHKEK
KRAS G12D, sequence (P62937 whole entry): as the sequence (P62937 whole entry) above
Procedure, shortened: as §6

KRAS G12S = KRAS G12S (Homo sapiens, UniProt P01116+P62937, G12S); experiment: Ras-Raf disruption/FRET/MOA assay, KRAS G12S; format: biochemical
KRAS G12S, sequence (P01116 1-169 isoform P01116-2 G12S limits assumed): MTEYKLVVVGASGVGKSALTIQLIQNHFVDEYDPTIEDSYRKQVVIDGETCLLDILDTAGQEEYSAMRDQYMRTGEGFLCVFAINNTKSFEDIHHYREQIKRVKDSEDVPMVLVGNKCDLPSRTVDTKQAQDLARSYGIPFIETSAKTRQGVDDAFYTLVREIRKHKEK
KRAS G12S, sequence (P62937 whole entry): as the sequence (P62937 whole entry) above
Procedure, shortened: as §6

KRAS WT = KRAS WT (Homo sapiens, UniProt P01116+P62937); experiment: Ras-Raf disruption/FRET/MOA assay, KRAS WT; format: biochemical
KRAS WT, sequence (P01116 1-169 isoform P01116-2 limits assumed): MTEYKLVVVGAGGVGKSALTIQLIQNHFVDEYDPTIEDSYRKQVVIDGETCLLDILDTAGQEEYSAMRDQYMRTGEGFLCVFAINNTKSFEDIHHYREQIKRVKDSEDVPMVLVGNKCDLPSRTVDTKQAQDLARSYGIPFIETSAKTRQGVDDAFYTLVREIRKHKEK
KRAS WT, sequence (P62937 whole entry): as the sequence (P62937 whole entry) above
Procedure, shortened: as §6

KRAS Q61H = KRAS Q61H (Homo sapiens, UniProt P01116+P62937, Q61H); experiment: Ras-Raf disruption/FRET/MOA assay, KRAS Q61H; format: biochemical
KRAS Q61H, sequence (P01116 1-169 isoform P01116-2 Q61H limits assumed): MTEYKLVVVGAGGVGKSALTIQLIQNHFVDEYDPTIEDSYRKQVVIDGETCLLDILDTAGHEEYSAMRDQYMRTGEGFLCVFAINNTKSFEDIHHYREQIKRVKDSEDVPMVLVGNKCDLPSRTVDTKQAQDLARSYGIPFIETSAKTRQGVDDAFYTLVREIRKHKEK
KRAS Q61H, sequence (P62937 whole entry): as the sequence (P62937 whole entry) above
Source text: as §1, §2, §3, §4

NRAS Q61R = target: T2, NRAS Q61R (Homo sapiens, UniProt P01111+P62937, Q61R); experiment: Ras-Raf disruption/FRET/MOA assay, NRAS Q61R; format: biochemical
T2 construct: His6
T2 sequence (P01111 whole entry Q61R): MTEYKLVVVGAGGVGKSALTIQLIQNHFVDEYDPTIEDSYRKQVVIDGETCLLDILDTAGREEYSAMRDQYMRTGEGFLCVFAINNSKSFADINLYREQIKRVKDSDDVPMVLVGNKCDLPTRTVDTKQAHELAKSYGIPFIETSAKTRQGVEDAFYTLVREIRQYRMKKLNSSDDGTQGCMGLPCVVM
T2 sequence (P62937 whole entry): as the sequence (P62937 whole entry) above
Source text: as §1, §2, §3, §4

NRAS G12C = target: T3, NRAS G12C (Homo sapiens, UniProt P01111+P62937, G12C); experiment: Ras-Raf disruption/FRET/MOA assay, NRAS G12C; format: biochemical
T3 construct: His6
T3 sequence (P01111 whole entry G12C): as the sequence (P01111 whole entry Q61R) above, with G12C, R61Q counted along it
T3 sequence (P62937 whole entry): as the sequence (P62937 whole entry) above
Procedure, shortened: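 Disruption of Ras:RAF binding was read as a drop in TR-FRET ratio versus DMSO controls. The buffer was 25 mM HEPES pH 7.3, 0.002% Tween20, 0.1% BSA, 100 mM NaCl and 5 mM MgCl2. Compounds were tested as a 10-point 3-fold dilution series from 30 μM. Detection used 10 nM anti-His Eu-W1024 and 50 nM anti-GST allophycocyanin.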

NRAS WT = target: T4, NRAS WT (Homo sapiens, UniProt P01111+P62937); experiment: Ras-Raf disruption/FRET/MOA assay, NRAS WT; format: biochemical
T4 construct: His6
T4 sequence (P01111 whole entry): as the sequence (P01111 whole entry Q61R) above, with R61Q counted along it
T4 sequence (P62937 whole entry): as the sequence (P62937 whole entry) above
Source text: as §1, §2, §3, §4

[3] = NRAS Q61K, read-out: NRAS Q61K FRET data IC50
[4] = ASPC1, AsPC-1 cells, K-Ras G12D, read-out: pERK EC50 (AsPC-1 KRAS G12D)
[5] = NCI-H358, K-Ras G12C, 5-day treatment, read-out: H358 Cell Viability IC50
[6] = disruption of BRAF RBD binding, with Cyclophilin A, read-out: KRAS G13C FRET IC50
[7] = disruption of BRAF RBD binding, with Cyclophilin A, read-out: KRAS G13D FRET IC50
[8] = disruption of BRAF RBD binding, with Cyclophilin A, read-out: KRAS G12C FRET IC50
[9] = AsPC-1, K-Ras G12D, 5-day treatment, read-out: AsPC-1 Cell Viability IC50
[10] = disruption of BRAF RBD binding, with Cyclophilin A, read-out: KRAS G12V FRET IC50
[11] = disruption of BRAF RBD binding, with Cyclophilin A, read-out: KRAS G12D FRET IC50
[12] = disruption of BRAF RBD binding, with Cyclophilin A, read-out: KRAS G12S FRET IC50
[13] = disruption of BRAF RBD binding, with Cyclophilin A, read-out: KRAS WT FRET IC50
[14] = KRAS Q61H, read-out: KRAS Q61H FRET data IC50
[15] = NRAS Q61R, read-out: NRAS Q61R FRET data IC50
[16] = NRAS G12C, read-out: NRAS G12C FRET data IC50
[17] = NRAS WT, read-out: NRAS WT FRET data IC50

T1 sequence (P01111 whole entry Q61K): as the sequence (P01111 whole entry Q61R) above, with R61K counted along it
T1 sequence (P62937 whole entry): as the sequence (P62937 whole entry) above

Row | Compound | IC50 (NRAS Q61K; [3]) [µM] | EC50 (AsPC-1 (K-Ras G12D) [1]; [4]) [µM] | IC50 (NCI-H358 (K-Ras G12C); [5]) [µM] | IC50 (KRAS G13C; [6]) [µM] | IC50 (KRAS G13D; [7]) [µM] | IC50 (KRAS G12C; [8]) [µM] | IC50 (AsPC-1 (K-Ras G12D) [2]; [9]) [µM] | IC50 (KRAS G12V; [10]) [µM] | IC50 (KRAS G12D; [11]) [µM] | IC50 (KRAS G12S; [12]) [µM] | IC50 (KRAS WT; [13]) [µM] | IC50 (KRAS Q61H; [14]) [µM] | IC50 (NRAS Q61R; [15]) [µM] | IC50 (NRAS G12C; [16]) [µM] | IC50 (NRAS WT; [17]) [µM] | other results
1 | CCn1c(-c2cc(N3CCN(C)CC3)cnc2[C@H](C)OC)c2c3cc(ccc31)-c1csc(n1)C[C@H](NC(=O)[C@H](C1CCCC1)N1CC[C@]3(CCN(C(=O)[C@@H]4N[C@@H]4C4CC4)C3)C1=O)C(=O)N1CCC[C@H](N1)C(=O)OCC(C)(C)C2 [Compound 324] | 0.1 to 1 | < 5 | < 0.01 | 0.1 to 1 | 1 to 10 | 0.1 to 1 | 0.01 to 0.1 | 0.1 to 1 | 0.1 to 1 | 0.1 to 1 | 0.1 to 1 | 0.1 to 1 | 0.1 to 1 | 0.1 to 1 | 0.1 to 1 | –
2 | CCC(C)N(C)C(=O)c1cncc(-c2c3c4cc(ccc4n2CC)-c2cc(O)cc(c2)C[C@H](NC(=O)[C@H](C(C)C)N(C)C(=O)CN(C)C(=O)[C@H]2CN2)C(=O)N2CCC[C@H](N2)C(=O)OCC(C)(C)C3)c1 (some centres unmarked) [Compound 144] | – | – | – | – | – | – | – | – | – | – | – | – | – | – | – | IC50 (NRAS Q61K): 1 to 10 µM; EC50 (AsPC-1 (K-Ras G12D) [1]; ASPC1, read-out: pERK EC50 (AsPC-1 KRAS G12D)): < 5 µM; IC50 (NCI-H358 (K-Ras G12C); read-out: H358 Cell Viability IC50, NCI-H358, K-Ras G12C, 5-day treatment): 0.01 to 0.1 µM; IC50 (KRAS G13C): 0.01 to 0.1 µM; IC50 (KRAS G13D): 0.1 to 1 µM; IC50 (KRAS G12C): 0.01 to 0.1 µM; IC50 (AsPC-1 (K-Ras G12D) [2]; read-out: AsPC-1 Cell Viability IC50, AsPC-1, K-Ras G12D, 5-day treatment): 0.1 to 1 µM; IC50 (KRAS G12V): 0.1 to 1 µM; IC50 (KRAS G12D): 0.1 to 1 µM; IC50 (KRAS G12S): 0.1 to 1 µM; IC50 (KRAS WT): 0.1 to 1 µM; IC50 (KRAS Q61H): 0.01 to 0.1 µM; IC50 (NRAS Q61R): 1 to 10 µM; IC50 (NRAS G12C; NRAS G12C FRET data IC50, NRAS G12C): 0.01 to 0.1 µM; IC50 (NRAS WT): 0.1 to 1 µM
3 | CCn1c(-c2cccnc2[C@H](C)OC)c2c3cc(ccc31)-c1cc(O)cc(c1)C[C@H](NC(=O)[C@H](C(C)C)N1CO[C@@]3(CCN(C(=O)[C@H]4CN4)C3)C1=O)C(=O)N1CCC[C@H](N1)C(=O)OCC(C)(C)C2 [Compound 232] | 0.1 to 1 | < 5 | – | 0.01 to 0.1 | 0.1 to 1 | 0.01 to 0.1 | 1 to 10 | 0.1 to 1 | 1 to 10 | 0.1 to 1 | 0.1 to 1 | 0.01 to 0.1 | 0.1 to 1 | 0.01 to 0.1 | 0.1 to 1 | –
4 | CCn1c(-c2cccnc2[C@H](C)OC)c2c3cc(ccc31)-c1csc(n1)C[C@H](NC(=O)[C@H](C1CCCC1)N1CC[C@]3(CCN(C(=O)[C@@H]4N[C@@H]4C4CC4)C3)C1=O)C(=O)N1CCC[C@H](N1)C(=O)OCC(C)(C)C2 [Compound 234] | 1 to 10 | – | 0.01 to 0.1 | 1 to 10 | > 10 | 0.1 to 1 | 0.1 to 1 | 1 to 10 | 1 to 10 | 1 to 10 | 1 to 10 | 1 to 10 | 1 to 10 | 1 to 10 | 1 to 10 | –
5 | CCn1c(-c2cccnc2[C@H](C)OC)c2c3cc(ccc31)-c1cc(cc(C(F)F)c1)C[C@H](NC(=O)[C@H](C1CCCC1)N1CC[C@]3(CCN(C(=O)[C@@H]4N[C@@H]4C4CC4)C3)C1=O)C(=O)N1CCC[C@H](N1)C(=O)OCC(C)(C)C2 [Compound 318] | 1 to 10 | – | 0.1 to 1 | 0.1 to 1 | 1 to 10 | 0.1 to 1 | 0.1 to 1 | 1 to 10 | 1 to 10 | 1 to 10 | 0.1 to 1 | 0.1 to 1 | 1 to 10 | 1 to 10 | 1 to 10 | –
6 | CCn1c(-c2cccnc2[C@H](C)OC)c2c3cc(ccc31)-c1cc(cc(C(F)F)c1)C[C@H](NC(=O)[C@H](C1CCCC1)N1CC[C@]3(CCN(C(=O)[C@H]4CN4)C3)C1=O)C(=O)N1CCC[C@H](N1)C(=O)OCC(C)(C)C2 [Compound 233] | 1 to 10 | < 5 | – | 0.1 to 1 | 1 to 10 | 0.1 to 1 | 1 to 10 | 1 to 10 | 1 to 10 | 1 to 10 | 1 to 10 | 0.1 to 1 | > 10 | 0.1 to 1 | 1 to 10 | –
